Series [1] deals with estrogen receptor signaling pathway. Kind of series: mRNA of estrogen receptor target genes. Type of series: cell-based. The following applies: HEK 293A cells (FIG. 5D). The text has this: (§1) Total RNA was extracted from each group of cells using a TRI reagent (Molecular Research Center). Extracted RNA was reverse transcribed using an ImProm™ Reverse Transcription System (Promega), followed by measurement using a StepOnePlus™ Real-Time PCR System (Applied Biosystems).

Series [2] has as its system B16F10 mouse melanoma cells. The experiment in a line: Measuring amount of melanin. Type of series: cell-based. As for the experimental part: B16F10 mouse melanoma cells were seeded into a 6-well cell culture plate at a density of 1×10^5/well. […] The obtained cells were disrupted and then centrifuged to obtain a cell precipitate, and 1 N NaOH containing 10% DMSO was added thereto. Thereafter, the resulting precipitate was allowed to react at 60° C. for 1 hour, and absorbance at 405 nm was measured.

For series [3], the target named is T1, ERα ligand-binding domain (Homo sapiens, UniProt P03372).
T1 construct: expressed in transfected cells; host or cells: HEK 293A cells
T1 sequence (P03372 311-547 limits assumed): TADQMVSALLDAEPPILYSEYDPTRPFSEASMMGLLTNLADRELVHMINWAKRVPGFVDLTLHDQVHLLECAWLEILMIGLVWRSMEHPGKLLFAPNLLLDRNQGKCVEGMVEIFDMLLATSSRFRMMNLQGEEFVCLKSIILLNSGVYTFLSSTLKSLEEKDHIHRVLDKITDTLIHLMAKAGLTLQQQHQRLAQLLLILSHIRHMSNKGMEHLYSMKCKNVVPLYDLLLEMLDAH
T1 sequence (P04386 1-147 partner limits assumed): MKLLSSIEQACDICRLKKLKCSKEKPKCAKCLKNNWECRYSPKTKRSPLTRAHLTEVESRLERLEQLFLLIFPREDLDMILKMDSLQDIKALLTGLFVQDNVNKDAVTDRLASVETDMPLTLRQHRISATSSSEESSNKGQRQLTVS
The experiment in a line: Estrogen receptor reporter (GAL4 luciferase) experiment. The class given is cell-based. As for the experimental part: To deliver a DNA plasmid into HEK 293A cells, a microporator (Invitrogen/Neon® Transfection System) was used. At one time, 1 μg of a reporter plasmid was delivered into 1 million cells. The DNA-delivered cells were cultured in a general culture medium. The activities of Renilla and Firefly luciferases were measured using a Dual-Luciferase® Reporter Assay System (Promega). To measure the activity of an estrogen receptor (ER) reporter, a system, in which, when a specific material binds to the ER ligand domain, GAL4 binds to a specific DNA sequence, resulting in expression of the Firefly luciferase, was used, and the Renilla luciferase was delivered together to calibrate DNA transfer efficiency. The activity of the estrogen receptor reporter was determined by dividing a value of the Firefly luciferase by a value of the Renilla luciferase. […] When HEK 293A cells to which reporter DNAs were delivered were treated with 50 μM of the extract, the expression of the luciferases was nearly 3.5 times higher than that of the control (see FIG. 5B).

In series [4] the target is T2, tyrosinase (Mus musculus, UniProt P11344).
T2 construct: The obtained cells were disrupted and then centrifuged to separate a supernatant; endogenous in cells; host or cells: B16F10 mouse melanoma cells, stimulated with melanocyte stimulating hormone
T2 sequence (P11344 19-533): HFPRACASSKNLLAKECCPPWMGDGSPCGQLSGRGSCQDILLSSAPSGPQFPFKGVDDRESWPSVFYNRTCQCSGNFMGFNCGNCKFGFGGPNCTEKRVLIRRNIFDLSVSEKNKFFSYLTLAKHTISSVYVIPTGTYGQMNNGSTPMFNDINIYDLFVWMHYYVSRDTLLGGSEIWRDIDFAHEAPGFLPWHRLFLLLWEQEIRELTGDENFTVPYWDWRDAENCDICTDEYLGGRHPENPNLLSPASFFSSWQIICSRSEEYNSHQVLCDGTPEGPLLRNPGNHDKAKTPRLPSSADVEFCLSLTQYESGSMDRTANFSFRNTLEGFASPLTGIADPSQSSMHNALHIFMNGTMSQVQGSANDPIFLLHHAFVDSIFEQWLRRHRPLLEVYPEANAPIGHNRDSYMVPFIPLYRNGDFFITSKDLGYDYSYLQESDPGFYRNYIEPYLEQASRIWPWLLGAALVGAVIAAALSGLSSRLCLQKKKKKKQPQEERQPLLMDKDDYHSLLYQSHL
Kind of series: Degree of tyrosinase activity at cellular level. The class given is cell-based. The following applies: B16F10 cells. How it is done: B16F10 mouse melanoma cells were seeded into a 6-well cell culture plate at a density of 1×10^5/well. […] The obtained cells were disrupted and then centrifuged to separate a supernatant. The protein concentration of the supernatant was measured, and 50 μg of protein per sample was standardized into a volume of 50 μl and placed on a 96-well plate. Then, 100 μl of 0.1% L-DOPA was added as a reaction substrate to each sample and allowed to react at 37° C. for 1 hour, and then absorbance at 475 nm was measured.

The test system of a further series is cells. The experiment in a line: Cytotoxicity experiment (MTT experiment). The class given is cell-based. How it is done:
1-1: Cell Culture HEK 293A and B16F10 cells used, Dulbecco's Modified Eagle's Medium (DMEM) containing 10% fetal bovine serum and 1% penicillin/streptomycin as a nutrient source, and were incubated in an incubator maintained at 37° C. under 5% CO2.
This is an experiment for measuring the number of living cells through conversion of 3-(4,5-dimethyl-thiazol-2-yl)-2,5-diphenyl tetrazolium bromide (MTT) into formazan with a purple color, by reduction in cells. Cells were seeded into a 96-well cell culture plate at a density of 3×10^3. […] Thereafter, the culture medium was removed, and a solvent for dissolving crystallized formazan was added to dissolve the sample, and the absorbance at 570 nm of the dissolved sample was measured.

The test system of series [5] is heat shock protein 70 (HSP70). Kind of series: Expression of heat shock protein 70 under heat stress. Type of series: cell-based, mouse. The following applies: B16F10 cells. As for the experimental part: Total protein was extracted from the cells using a THE buffer, and then the amount thereof was measured using a Bradford reagent. In addition, proteins were separated by SDS-PAGE and identified using antibodies, followed by quantitative analysis. Antibodies were purchased from respective manufacturers, and HSP70 (Santa Cruz) and actin (MPBIO) were used.
as §1

Series [6] has as its system tyrosinase. The experiment in a line: Tyrosinase protein and mRNA amount in MSH-treated B16F10 cells. The class given is cell-based, mouse.
Source text: Antibodies were purchased from respective manufacturers. Tyrosinase, 14-3-3ζ, LAMIN B (Santa Cruz), MITF (Abcam), phospho-MITF (Sigma), ERK, phospho-ERK (Cell Signaling), ACTIN (MPBIO), and GAPDH (Bethyl) were used.
as §1

Where [7] appears, read: 100 nM melanocyte stimulating hormone for 48 hours.
The mark [8] stands for this setting: increasing amount of 8-methoxybutin (FIG. 2D).

Where only a bound is given, the exact number is not on record here.

For the molecule `COc1c(O)ccc2c1OC(c1ccc(O)c(O)c1)CC2=O` (centres unmarked) [8-methoxybutin, 2-(3,4-dihydroxyphenyl)-7-hydroxy-8-methoxy-2,3-dihydro-4H-1-benzopyran-4-one], the “amount of mRNA of target genes” value in series [1] was “increased”. Also, in series [2] (setting [7]), the “decrease in melanin synthesis amount” value is given as at least 50%. Also, in series [2] (setting [8]), the “melanin synthesis with increasing amount of compound” value was “in proportion to the amount of 8-methoxybutin”. In addition, in series [3] (HEK 293A cells with reporter DNAs, 50 μM (FIG. 5B)), the “expression of the luciferases relative to the control” value is around 3.5 times. Besides, the “expression of luciferases depending on concentration” value in series [3] (HEK 293A cells, concentration increased from 10 μM (FIG. 5C)) was “statistically significant increase”. The “decrease in tyrosinase activity” value at tyrosinase [4] (setting [7]) is given as at least 110%. Besides, the “tyrosinase activity with increasing amount of compound” value at tyrosinase [4] (setting [8]) was “in proportion to the amount of 8-methoxybutin”. Moreover, in the series with cells (24 hours treatment, high as well as low concentration), the cell survival rate entry is “about 100%”. Further, the cytotoxicity entry with cells (high concentration, 100 μM) is “cytotoxicity was hardly observed”. For the same molecule, the “amount of heat shock protein 70 mRNA compared to the control” value in series [5] (heat stress (FIG. 3B)) was “larger amount”. Moreover, the “amount of heat shock protein 70 (HSP70) compared to a control” value in series [5] (heat-applied condition 42° C. for 1 hour, DMSO control (FIG. 3A)) is recorded as “increased at least three times”. Moreover, the “amount of tyrosinase protein” value in the series with tyrosinase [6] (B16F10 cells treated with melanocyte stimulating hormone (FIG. 2B)) is given as “remarkable decrease”. For the same molecule, in the series with tyrosinase [6] (B16F10 cells treated with melanocyte stimulating hormone (FIG. 2C)), the “tyrosinase mRNA level” value was “confirmed at an mRNA level”. In addition, the “amount of tyrosinase protein with increasing amount of compound” value in the series with tyrosinase [6] (B16F10 cells, increasing amount of 8-methoxybutin (FIG. 2E)) is “reduced in proportion to the amount of 8-methoxybutin”.

For the origin of these results see patent US20210196607A1 (HESED BIO CO., LTD., priority 2017, published 2021).
